Among the data in US10669272B2, “Substituted naphthyridinone compounds useful as T cell activators” (BRISTOL-MYERS SQUIBB COMPANY, priority 2018, dated 2020) are IC50 and EC50 values, retold here.

For one assay, the target named is T1, human DGKα (Homo sapiens, UniProt P23743).
T1 construct: TVMV protease cleavage site (C); Hexa-His (C); made in house; host or cells: Sf9 insect cells (baculovirus, Bac-to-Bac)
The experiment in a line: DGKα LIPGLO assay (extruded liposome substrate), in vitro DGK inhibition. In kind it is biochemical. The settings on record: liposome (LIPGLO) assay; read-out: DGKa LIPGLO IC50.

A further assay concerns naïve human CD8 T cells. In words: Human CD8 T cells IFN-γ assay.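 Also: Naïve human CD8 T cells stimulated with plate-bound anti-CD3 and soluble anti-CD28, IFN-γ in supernatant quantified by AlphaLISA and converted to pg/mL.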 In kind it is cell-based. The settings on record: normalized to 3 μM reference compound with anti-CD3 plus anti-CD28 as 100% activation, read-out: HuCD8 INFG Normalized EC50.
A further assay concerns the target T2, human DGKζ (Homo sapiens, UniProt Q13574).
T2 construct: TVMV protease cleavage site (C); Hexa-His (C); made in house; host or cells: Sf9 insect cells (baculovirus, Bac-to-Bac)
In words: DGKζ LIPGLO assay (extruded liposome substrate), in vitro DGK inhibition. In kind it is biochemical. The settings on record: liposome (LIPGLO) assay; read-out: DGKz LIPGLO IC50.

Another assay relates to Human venous whole blood. In words: Human whole blood IFN-γ assay.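 Also: blood from healthy donors exposed to compound for 1 h before stimulation with anti-CD3 and anti-CD28 at 1 µg/mL each, IFN-γ quantified in supernatant by AlphaLISA.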 In kind it is cell-based. The settings on record: human whole blood, normalized to 3 μM reference compound with anti-CD3 plus anti-CD28 as 100% activation, read-out: INFg Whole Blood Normalized Agonist EC50.
Assay [1] relates to OT-1 CD8+ T cells with SIINFEKL-loaded MC38 tumor cells. The experiment in a line: Murine cytotoxic T lymphocyte assay (IFN-γ, OT-1 CTL with MC38 tumor cells). The settings on record: read-out: msCTL INFg IC50. In kind it is cell-based, mouse. In a few lines: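 OT-1 CD8+ T cells, expanded 5 days with OVA peptide (1 μg/mL) and mIL2, pretreated 1 h with DGK inhibitors, then co-cultured overnight at 37° C at 1:10 with MC38 cells pulsed 3 h with 1 μg/mL SIINFEKL. IFN-γ in 24 h supernatant by AlphaLISA.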

Read-outs that look alike come from different tables or passages of the source.

T2 sequence (Q13574 with tags, fused parts or gaps isoform Q13574-4): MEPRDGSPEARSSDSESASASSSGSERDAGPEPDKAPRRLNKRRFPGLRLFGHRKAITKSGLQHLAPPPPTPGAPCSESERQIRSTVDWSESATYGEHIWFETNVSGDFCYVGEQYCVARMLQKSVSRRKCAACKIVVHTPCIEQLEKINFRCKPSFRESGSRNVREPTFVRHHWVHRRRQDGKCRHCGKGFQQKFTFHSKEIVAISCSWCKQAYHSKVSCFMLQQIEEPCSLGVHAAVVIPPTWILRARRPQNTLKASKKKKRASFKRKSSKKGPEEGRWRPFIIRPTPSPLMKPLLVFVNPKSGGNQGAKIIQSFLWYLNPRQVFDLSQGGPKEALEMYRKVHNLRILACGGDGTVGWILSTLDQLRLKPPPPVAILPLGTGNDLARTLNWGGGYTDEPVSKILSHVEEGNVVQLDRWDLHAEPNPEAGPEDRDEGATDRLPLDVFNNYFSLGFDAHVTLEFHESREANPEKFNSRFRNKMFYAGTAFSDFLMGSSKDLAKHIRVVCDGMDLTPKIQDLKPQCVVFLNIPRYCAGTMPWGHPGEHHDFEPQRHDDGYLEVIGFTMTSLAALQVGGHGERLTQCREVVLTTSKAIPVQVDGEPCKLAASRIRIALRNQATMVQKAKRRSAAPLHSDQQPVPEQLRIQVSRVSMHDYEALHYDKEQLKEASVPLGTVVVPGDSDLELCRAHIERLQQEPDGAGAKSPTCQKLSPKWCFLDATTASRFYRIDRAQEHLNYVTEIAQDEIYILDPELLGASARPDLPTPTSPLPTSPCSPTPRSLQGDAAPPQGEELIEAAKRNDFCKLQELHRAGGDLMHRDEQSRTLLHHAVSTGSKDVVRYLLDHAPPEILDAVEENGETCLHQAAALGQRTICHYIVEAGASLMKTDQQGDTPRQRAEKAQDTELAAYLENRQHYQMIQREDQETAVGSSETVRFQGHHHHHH
T1 sequence (P23743 with tags, fused parts or gaps): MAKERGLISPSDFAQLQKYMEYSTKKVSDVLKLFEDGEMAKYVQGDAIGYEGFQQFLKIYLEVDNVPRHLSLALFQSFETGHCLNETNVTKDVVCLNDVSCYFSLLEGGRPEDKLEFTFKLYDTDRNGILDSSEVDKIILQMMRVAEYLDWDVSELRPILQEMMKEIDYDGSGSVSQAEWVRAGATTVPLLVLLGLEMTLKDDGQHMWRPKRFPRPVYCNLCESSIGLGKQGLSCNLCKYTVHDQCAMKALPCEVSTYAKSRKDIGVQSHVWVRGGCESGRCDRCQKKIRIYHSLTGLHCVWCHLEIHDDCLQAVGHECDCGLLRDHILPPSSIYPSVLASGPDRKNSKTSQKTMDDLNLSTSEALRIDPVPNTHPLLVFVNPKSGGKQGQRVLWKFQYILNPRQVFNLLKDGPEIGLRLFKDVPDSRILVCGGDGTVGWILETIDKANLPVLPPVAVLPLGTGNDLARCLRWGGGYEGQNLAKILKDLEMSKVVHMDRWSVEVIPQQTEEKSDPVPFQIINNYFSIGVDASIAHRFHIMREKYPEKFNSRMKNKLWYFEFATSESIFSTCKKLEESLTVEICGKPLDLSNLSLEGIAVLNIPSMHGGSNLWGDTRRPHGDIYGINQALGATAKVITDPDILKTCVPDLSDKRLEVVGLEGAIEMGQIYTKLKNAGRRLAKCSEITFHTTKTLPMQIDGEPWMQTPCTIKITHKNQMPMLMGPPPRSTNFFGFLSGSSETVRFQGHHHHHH
Protocol for Human venous whole blood: Human Whole Blood IFN-γ Assay
Human venous whole blood (22.5 μL per well), obtained from healthy donors, was pre-treated with compounds for one hour at 37° C. in a humidified 95% air/5% CO2 incubator. The blood was stimulated with 2.5 μL anti-human CD3 and anti-CD28 mAb at a final concentration of 1 μg/mL each for 24 hours at 37° C. IFN-γ in the supernatants was measured using AlphLISA kit (Cat # AL217).

With `COc1cc(F)ccc1C(c1ccc(F)cc1)N1C[C@H](C)N(c2cc(=O)n(C)c3ccc(C#N)nc23)C[C@H]1C` (single isomer, unassigned) [Example 109], the results for the half-inhibitory concentration (IC50) (at human DGKα; on human DGKζ; in assay [1]) were 24000 nM, 100 nM and 480 nM, respectively. Moreover, the EC50 was 15 nM in the assay on naïve human CD8 T cells and 1300 nM in the assay on Human venous whole blood.
On to `COC(=O)C1CN(C(c2ccc(F)cc2)c2ccc(F)cc2)CCN1c1c(C#N)c(=O)n(C)c2ccc(C#N)nc12` (single isomer, unassigned) [Example 116, Methyl 4-(bis(4-fluorophenyl)methyl)-1-(3,6-dicyano-1-methyl-2-oxo-1,2-dihydro-1,5-naphthyridin-4-yl)piperazine-2-carboxylate], for which the IC50 came out at 9500 nM at human DGKα, 3600 nM on human DGKζ and 560 nM in assay [1]. The EC50 with naïve human CD8 T cells (Homo sapiens, T-cell, 20 h) was found to be 160 nM; with Human venous whole blood (Homo sapiens, 24 h) it was 3300 nM.
In the case of `COC(=O)C1CN(C(c2ccc(F)cc2)c2ccc(F)cc2)CCN1c1c(C#N)c(=O)n(C)c2ccc(C#N)nc12` (single isomer, unassigned) [Example 117, Methyl 4-(bis(4-fluorophenyl)methyl)-1-(3,6-dicyano-1-methyl-2-oxo-1,2-dihydro-1,5-naphthyridin-4-yl)piperazine-2-carboxylate], the figures for the IC50 (on human DGKα; at human DGKζ; in assay [1]) were 350 nM, 7200 nM and 270 nM, respectively. The figures for the half-maximal effective concentration (EC50) in the assay with naïve human CD8 T cells and in the assay on Human venous whole blood were 280 nM and 2500 nM, respectively.
As to `COc1cc(F)ccc1C(c1ccc(F)cc1)N1C[C@H](C)N(c2cc(=O)n(C)c3ccc(C#N)nc23)C[C@H]1C` (single isomer, unassigned) [Example 119], the IC50 stood at 29000 nM at human DGKα, 1700 nM on human DGKζ and 6300 nM in assay [1]. Moreover, the EC50 in the assay on naïve human CD8 T cells was found to be 610 nM; with Human venous whole blood, 5100 nM.
Take `C[C@@H]1CN(c2cc(=O)n(C)c3ccc(C#N)nc23)[C@@H](C)CN1C(c1ccc(F)cc1)c1ccccn1` (single isomer, unassigned) [Example 197]: the IC50 on human DGKα stood at 200 nM; on human DGKζ it was 3700 nM; in assay [1] (Mus musculus, MC-38), 82 nM. Besides, the EC50 amounted to 35 nM with naïve human CD8 T cells (Homo sapiens, T-cell, 20 h) and 1100 nM in the assay on Human venous whole blood (Homo sapiens, 24 h).
Take `COc1ncccc1C(c1ccc(F)cc1)N1C[C@H](C)N(c2cc(=O)n(C)c3ccc(C#N)nc23)C[C@H]1C` (single isomer, unassigned) [Example 210]: the IC50 on human DGKα was 14000 nM; at human DGKζ, 260 nM; in assay [1] (Mus musculus, MC-38) it was 120 nM. Also, the EC50 came to 130 nM in the assay with naïve human CD8 T cells and 1100 nM with Human venous whole blood.
Turning to `Cc1ccc(C(c2ccc(Cl)cc2)N2C[C@H](C)N(c3cc(=O)n(C)c4ccc(C#N)nc34)C[C@H]2C)cc1` (single isomer, unassigned) [Example 247], the IC50 on human DGKα turned out to be 370 nM; at human DGKζ, 210 nM; in assay [1] (Mus musculus, MC-38) it was 110 nM. Also, the EC50 with naïve human CD8 T cells (Homo sapiens, T-cell, 20 h) turned out to be 120 nM; in the assay with Human venous whole blood (Homo sapiens, 24 h), 390 nM.
For the compound `Cc1ccc(C(c2ccc(Cl)cc2)N2C[C@H](C)N(c3cc(=O)n(C)c4ccc(C#N)nc34)C[C@H]2C)cc1` (single isomer, unassigned) [Example 250], the IC50 on human DGKα worked out at 600 nM; on human DGKζ, 630 nM; in assay [1], 190 nM. The EC50 with naïve human CD8 T cells stood at 120 nM; in the assay on Human venous whole blood, 710 nM.
`Cc1ccc(C(c2ccc(F)cc2)N2C[C@H](C)N(c3cc(=O)n(C)c4ccc(C#N)nc34)C[C@H]2C)cc1` (single isomer, unassigned) [Example 252]: the IC50 came to 660 nM on human DGKα, 440 nM at human DGKζ and 22 nM in assay [1]. The EC50 with naïve human CD8 T cells was found to be 160 nM; with Human venous whole blood, 430 nM.
As for `C[C@@H]1CN(c2cc(=O)n(C)c3ccc(C#N)nc23)[C@@H](C)CN1C(c1ccc(F)cc1)c1ccc(Cl)cc1` (single isomer, unassigned) [Example 302], the values for the IC50 (at human DGKα; at human DGKζ; in assay [1]) were 170 nM, 640 nM and 24 nM, respectively. Further, the EC50 in the assay on naïve human CD8 T cells worked out at 23 nM; in the assay with Human venous whole blood (Homo sapiens, 24 h) it was 570 nM.
As to `C[C@@H]1CN(c2cc(=O)n(C)c3ccc(C#N)nc23)[C@@H](C)CN1C(c1ccc(F)cc1)c1ccc(Cl)cc1` (single isomer, unassigned) [Example 303], the IC50 at human DGKα stood at 500 nM; at human DGKζ, 690 nM; in assay [1], 57 nM. In addition, the figures for the EC50 in the assay with naïve human CD8 T cells and in the assay on Human venous whole blood were 160 nM and 650 nM, respectively.
In the case of `C[C@@H]1CN(c2cc(=O)n(C)c3ccc(C#N)nc23)[C@@H](C)CN1C(c1ccc(F)cc1)c1ccc(C#N)cc1` (single isomer, unassigned) [Example 306], the IC50 at human DGKα stood at 470 nM; on human DGKζ, 1300 nM; in assay [1] (Mus musculus, MC-38), 53 nM. In addition, the EC50 in the assay with naïve human CD8 T cells (Homo sapiens, T-cell, 20 h) turned out to be 54 nM; with Human venous whole blood (Homo sapiens, 24 h) it was 530 nM.
In the case of `C[C@@H]1CN(c2cc(=O)n(C)c3ccc(C#N)nc23)[C@@H](C)CN1C(c1ccc(F)cc1)c1ccc(C#N)cc1` (single isomer, unassigned) [Example 307], the IC50 was 470 nM on human DGKα, 1000 nM on human DGKζ and 31 nM in assay [1]. The EC50 is 30 nM with naïve human CD8 T cells and 330 nM in the assay on Human venous whole blood.
Consider `CC(c1ccc(F)cc1)N1C[C@H](C)N(c2cc(=O)n(C)c3ccc(C#N)nc23)C[C@H]1C` (single isomer, unassigned) [Example 308], for which the IC50 on human DGKα was 25 nM; at human DGKζ it was 160 nM; in assay [1] (Mus musculus, MC-38), 81 nM. The EC50 in the assay with naïve human CD8 T cells turned out to be 290 nM; in the assay on Human venous whole blood (Homo sapiens, 24 h), 520 nM.
On to `COc1cc(F)ccc1C(c1ccc(F)cc1)N1C[C@@H](C)N(c2c([N+](=O)[O-])c(=O)n(C)c3ccc(C#N)nc23)C[C@@H]1C` (stereo in doubt) [Example 120, 8-((2R,5S)-4-((4-fluoro-2-methoxyphenyl)(4-fluorophenyl)methyl)-2,5-dimethylpiperazin-1-yl)-5-methyl-7-nitro-6-oxo-5,6-dihydro-1,5-naphthyridine-2-carbonitrile], for which the IC50 at human DGKα was 110000 nM; on human DGKζ it was 240000 nM; in assay [1] (Mus musculus, MC-38), 4700 nM. Also, the EC50 with naïve human CD8 T cells (Homo sapiens, T-cell, 20 h) is 1000 nM; in the assay on Human venous whole blood (Homo sapiens, 24 h) it was 20000 nM.
With `Cn1c(=O)cc(N2CCN(C(c3ccc(F)cc3)c3ccc(F)cc3)C(CF)C2)c2nc(C#N)ccc21` (stereo not shown) [Example 8, 8-(4-(bis(4-fluorophenyl)methyl)-3-(fluoromethyl)piperazin-1-yl)-5-methyl-6-oxo-5,6-dihydro-1,5-naphthyridine-2-carbonitrile], the half-maximal inhibitory concentration (IC50) was found to be 17000 nM at human DGKα; 5000 nM at human DGKζ; 1000 nM in assay [1] (Mus musculus, MC-38). Moreover, the EC50 worked out at 230 nM in the assay on naïve human CD8 T cells (Homo sapiens, T-cell, 20 h) and 14000 nM in the assay on Human venous whole blood (Homo sapiens, 24 h).
Consider `C[C@@H]1CN(c2c(Cl)c(=O)n(C)c3ccc(C#N)nc23)[C@@H](C)CN1C(c1ccc(F)cc1)c1ccc(F)cc1` [Example 18, 8-((2S,5R)-4-(bis(4-fluorophenyl)methyl)-2,5-dimethylpiperazin-1-yl)-7-chloro-5-methyl-6-oxo-5,6-dihydro-1,5-naphthyridine-2-carbonitrile], for which the IC50 worked out at 800 nM on human DGKα; 12000 nM on human DGKζ; 10000 nM in assay [1] (Mus musculus, MC-38). Further, the EC50 came to 250 nM in the assay on naïve human CD8 T cells (Homo sapiens, T-cell, 20 h) and 20000 nM in the assay with Human venous whole blood (Homo sapiens, 24 h).
For `C[C@@H]1CN(c2c(Br)c(=O)n(C)c3ccc(C#N)nc23)[C@@H](C)CN1C(c1ccc(F)cc1)c1ccc(F)cc1` [Example 19, 8-((2S,5R)-4-(bis(4-fluorophenyl)methyl)-2,5-dimethylpiperazin-1-yl)-7-bromo-5-methyl-6-oxo-5,6-dihydro-1,5-naphthyridine-2-carbonitrile], in that order: 42000 nM, 240000 nM, 8700 nM, 10000 nM and 20000 nM.
As for `C[C@@H]1CN(c2c(C3CC3)c(=O)n(C)c3ccc(C#N)nc23)[C@@H](C)CN1C(c1ccc(F)cc1)c1ccc(F)cc1` [Example 20, 8-((2S,5R)-4-(bis(4-fluorophenyl)methyl)-2,5-dimethylpiperazin-1-yl)-7-cyclopropyl-5-methyl-6-oxo-5,6-dihydro-1,5-naphthyridine-2-carbonitrile], the IC50 at human DGKα amounted to 95000 nM; at human DGKζ, 130000 nM; in assay [1] (Mus musculus, MC-38), 10000 nM. Further, the EC50 came to 10000 nM in the assay with naïve human CD8 T cells (Homo sapiens, T-cell, 20 h) and 20000 nM in the assay on Human venous whole blood (Homo sapiens, 24 h).
In the case of `Cc1c(N2C[C@@H](C)N(C(c3ccc(F)cc3)c3ccc(F)cc3)C[C@@H]2C)c2nc(C#N)ccc2n(C)c1=O` [Example 22, 8-((2S,5R)-4-(bis(4-fluorophenyl)methyl)-2,5-dimethylpiperazin-1-yl)-5,7-dimethyl-6-oxo-5,6-dihydro-1,5-naphthyridine-2-carbonitrile], the IC50 at human DGKα came out at 44000 nM; at human DGKζ it was 37000 nM; in assay [1] (Mus musculus, MC-38), 10000 nM. In addition, the EC50 was 10000 nM in the assay with naïve human CD8 T cells (Homo sapiens, T-cell, 20 h) and 20000 nM with Human venous whole blood (Homo sapiens, 24 h).

In general, IC50 refers to the concentration at which inhibition is half-maximal. For orientation: EC50 means the concentration that produces a half-maximal response.
